These results are taken from publication PMC11846858, “Macrocarpal I induces immunogenic cell death and synergizes with immune checkpoint inhibition by targeting tubulin and PARP1 in colorectal cancer” (Cell Death Discovery, 2025).

This assay concerns the target T1, Tubulin Beta 2B Class IIb (TUBB2B) (Homo sapiens, UniProt Q9BVA1).
T1 construct: human TUBB2B in pET28a, N-terminal His-tag, expressed in E. coli BL21 (DE3) RIL
Description: ITC with purified His-tagged TUBB2B; supported by DARTS in SW620 and DLD1 lysates. It is filed as binding.

T1 sequence (Q9BVA1 whole entry): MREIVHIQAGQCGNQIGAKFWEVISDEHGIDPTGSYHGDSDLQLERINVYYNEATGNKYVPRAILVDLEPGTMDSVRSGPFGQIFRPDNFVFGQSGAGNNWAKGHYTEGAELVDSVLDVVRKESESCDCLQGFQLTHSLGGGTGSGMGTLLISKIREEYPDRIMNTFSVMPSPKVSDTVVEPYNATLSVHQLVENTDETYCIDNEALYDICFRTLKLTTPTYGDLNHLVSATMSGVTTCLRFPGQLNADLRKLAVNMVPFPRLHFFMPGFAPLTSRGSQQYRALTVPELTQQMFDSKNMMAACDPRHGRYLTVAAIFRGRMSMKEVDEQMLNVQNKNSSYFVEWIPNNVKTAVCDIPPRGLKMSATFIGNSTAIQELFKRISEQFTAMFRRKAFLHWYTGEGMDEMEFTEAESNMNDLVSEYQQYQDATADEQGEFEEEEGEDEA

As usually defined, the Kd is the equilibrium constant for the complex coming apart. Lower therefore signals higher affinity. `CC(C)C[C@H](c1c(O)c(C=O)c(O)c(C=O)c1O)[C@@H]1CC[C@@](C)(O)[C@@H]2C[C@H](C(C)(C)O)CC[C@]21C` [Macrocarpal I] gave a Kd of 1540 nM.
